{"source": "patent US10299714B2", "about": "“Blood collection devices containing blood stabilization agent including variegin or analog thereof and/or a polysulfated disaccharide” (Becton, Dickinson and Company, priority 2010, dated 2019)", "key": {"platelets": {"test_system": "platelets", "experiment": "Whole blood impedance aggregometry (Multiplate): platelet aggregation after room temperature storage of drawn blood", "type": "cell-based, human", "conditions": "for Time after blood draw where aggregation was still measurable above baseline: Table 5, collagen and/or ADP", "source_text": "The blood was allowed to stand at room temperature, in undisturbed aliquots, until tested at the times indicated. Samples were inverted several times immediately prior to testing, to re-suspend blood cells that naturally settle over time.\nMeasurements: Testing of platelet function (which in this experiment, was aggregation activity) was done using the Multiplate instrument (Verum Diagnostics, Munich, Germany), which uses whole blood as the sample and an increase in impedance as the measurement of platelet aggregation. The instrument was used per manufacturer's instructions. Briefly, 300 microliters of isotonic saline was warmed in each reaction cuvette, and to this was added 300 microliters of the whole blood sample. In reactions where aspirin or other platelet antagonists (inhibitors) were added in vitro, 20 microliters (μL) of a stock solution of aspirin was spiked into the samples. The aggregation reaction was initiated by addition of a platelet agonist, in this case collagen, at 3.2 μg/ml and volume (20 μl) per manufacturer's instructions. Upon addition of the collagen, the impedance measurements began automatically, and were continued for 6 minutes, representing the full course along the x-axis in the graphs shown in FIG. 2. The graphs show platelet aggregation, as reported by impedance, as an arbitrary unitless measurement on the y-axis, over the 6-minute run time on the x-axis. Traces shown are raw platelet aggregation data delivered from the instrument. […] Representative data are shown for blood that dwells at room temperature after the initial draw for 1 hr, 24 hr, 48 hr, and 72 hr. Data are shown for the blood itself, as well for blood pre-treated with aspirin to inhibit platelet function immediately prior to testing.\nThe experiments were performed as described in Example 1. In this case, the data are plotted as a function of time that the blood sample dwells outside of the body (x-axis) versus platelet function as shown as the area under the curve (AUC) as one representation of the platelet aggregation signal. AUC is the integrated signal from the raw data traces shown in Example 1, and also is reported as a unitless measurement. The effective background level of the instrument is drawn as a dashed line across the bottom of the graph. Any AUC measurement of aggregation at or below this level was considered so weak as to be unreportable, essentially representing a “null” data level.\n(§1) Relative stability of platelets was examined with respect to a range of concentrations of variegin (SEQ ID NO:1). Experiments were performed as described above, using either collagen or adenosine diphosphate (ADP) as agonists, all per manufacturer's recommended protocols. Table 2 lists a qualitative assessment of stability, namely how long after initially drawing the blood was platelet aggregation measureable above the effective instrument baseline, the time to first visual observation of clotted, insoluble material in the whole blood sample, and an assessment of the severity or extent of the presence of this insoluble material was also recorded.\nThese peptides were used as the blood stabilization agent, and were spiked into blood immediately after collection into an empty, evacuated blood collection tube, achieving a final concentration of 150 μM. The blood was allowed to dwell in a whole-blood state at room temperature, until assayed for platelet aggregation potential, all as described in Example 1. Agonists used included collagen and ADP, following manufacturer's instructions."}, "whole blood sample [1]": {"test_system": "whole blood sample", "experiment": "Visual inspection of stored whole blood sample for hemolysis", "type": "cell-based, human", "source_text": "Skilled practitioners will appreciate the hemolyzed samples are an obvious visual clue that damage to blood cells has occurred, either during the collection, transport, or storage of blood samples. Although hemolysis is not necessarily detrimental to any one clinical assay, it is a well known interference for some tests, and thus it is preferable to avoid causing hemolysis. Hemolysis can be measured by visual scale (e.g., mild or slightly pink, moderate or noticeably red, or severe or dark red). Hemolysis can also be measured by spectroscopic measurement of the red color of the hemoglobin itself, and can be reported by the concentration of hemoglobin released into the serum or plasma (e.g., such that less than about 20 mg/dL concentration of released hemoglobin, or to an extent that the hemoglobin concentration cannot be measured visually or by spectroscopy represents “minor or negligible” hemolysis, about 20 to about 100 mg/dL represents “mild” hemolysis, about 100 to about 300 represents “moderate” hemolysis, or greater than about 300 mg/dL represents “severe” hemolysis).\n(§2) The results are shown in Table 5 which lists additives alone or in combination that were spiked into freshly drawn whole blood samples. […] For some of the conditions tested, only a subset of these three parameters was recorded."}, "whole blood sample [2]": {"test_system": "whole blood sample", "experiment": "Visual inspection of stored whole blood sample for clotted, insoluble material", "parameters": "species or system human", "procedure": "as §1\nThese peptides were used as the blood stabilization agent, and were spiked into blood immediately after collection into an empty, evacuated blood collection tube, achieving a final concentration of 150 μM. The blood was allowed to dwell in a whole-blood state at room temperature, until assayed for platelet aggregation potential, all as described in Example 1. Agonists used included collagen and ADP, following manufacturer's instructions. Table 4 lists a qualitative assessment of stability, namely how long after initially drawing the sample was platelet aggregation measureable above the effective instrument baseline. Additionally, the time to first visual observation of clotted, insoluble material in the whole blood sample, and an assessment of the severity or extent of the presence of this insoluble material was also recorded. In some cases, only visual characterization of the amount of insoluble material was reported, without having performed any platelet aggregation measurements.\nas §2"}, "thrombin": {"molecular_target": "thrombin (Homo sapiens, UniProt P00734)", "conditions": "reported in Koh; cited from earlier work"}, "[3]": {"conditions": "relatively high concentration, used alone"}}, "data": [{"compound": "C[C@@H]1CCN(C(=O)[C@H](CCCN=C(N)N)NS(=O)(=O)c2cccc3c2NC[C@H](C)C3)[C@@H](C(=O)O)C1", "note": "[Argatroban, (2R,4R)-1-[(2S)-5-(diaminomethylideneamino)-2-[[(3R)-3-methyl-1,2,3,4-tetrahydroquinolin-8-yl]-sulfonylamino]pentanoyl]-4-methyl-piperidine-2-carboxylic acid, reference compound]", "values": [{"measurement": "Time after blood draw where aggregation was still measurable above baseline", "setting": "platelets; additive alone at 50 μM", "result": 30, "unit": "h"}, {"measurement": "Time after blood draw where aggregation was still measurable above baseline", "setting": "platelets; additive alone at 75 μM", "result": 24, "unit": "h"}, {"measurement": "Time after blood draw where aggregation was still measurable above baseline", "setting": "platelets; additive alone at 100 μM", "result": 24, "unit": "h"}, {"measurement": "time for stability of the sample for platelet aggregation measurements", "setting": "platelets; [3]", "result": "less time for stability of the sample for platelet aggregation measurements"}, {"measurement": "Visual inspection for hemolysis", "setting": "whole blood sample [1]; Table 5, additive alone at 100 μM", "result": "Extensive"}, {"measurement": "hemolysis", "setting": "whole blood sample [1]; [3]", "result": "extensive amounts of hemolysis"}, {"measurement": "onset of clotting", "setting": "whole blood sample [2]; [3]", "result": "faster onset of clotting"}]}, {"compound": "MHKTAPPFDFEAIPEEYLDDES (Synthetic Peptide Variegin Fragment) [Ct22]", "values": [{"measurement": "thrombin inhibition for therapeutic purposes", "setting": "thrombin", "result": "effective thrombin inhibitor"}, {"measurement": "time after blood draw to solid clotting of the sample", "setting": "whole blood sample [2]; peptide 150 μM, room temperature", "result": "clots solidly within one hour"}]}]}
